Results as given in patent US20230240296A1, “SEED TREATMENT FOR SAFENING WHEAT TO CHLOROACETAMIDE HERBICIDES” (THE BOARD OF TRUSTEES OF THE UNIVERSITY OF ARKANSAS, priority 2022, published 2023).

System: wheat cultivar 'Smiths Gold'
Test: Field trial: fenclorim seed treatment safening wheat against preemergence S-metolachlor (crop injury)
Format: in vivo
Description: Thus, in some embodiments, the methods of the present invention reduce herbicide-induced crop injury. The reduction in crop injury, due to a particular herbicide, provided by a particular safener can be determined by visually assessing crop injury in a plot of wheat treated with both the herbicide and the safener and comparing it to the crop injury observed in a control plot that was treated with the herbicide alone. Crop injury may be assessed by assigning the treated plot a rating on a scale of 0 to 100, wherein 0 indicates no crop injury and 100 indicates complete crop destruction. This score may be assigned, for example, by comparing the crop groundcover (i.e., green pixels) in the treated plot to that of the control plot using photographs.
Group 15 herbicides are promising candidates for controlling ryegrass in wheat. However, these herbicides are not currently registered for use in this crop. Thus, a field trial was conducted in Fayetteville, Ark. in fall of 2021 to test the ability of the safener fenclorim to protect wheat against the Group 15 herbicide S-metolachlor.
Seed from the conventional wheat cultivar ‘Smiths Gold’ was treated with various rates of the safener fenclorim (0, 0.5, and 2.0 g/kg seed). […] Crop injury and control of ryegrass were evaluated at two and three weeks after crop emergence. […]

**Q.** With `Clc1cc(Cl)nc(-c2ccccc2)n1` [fenclorim, 4,6-dichloro-2-phenyl-pyrimidine] as the compound, how does the “safening against S-metolachlor (percentage of injury to wheat)” value (fenclorim seed treatment 0.5 and 2.0 g/kg seed, S-metolachlor 750 and 1120 g ai/ha preemergence, two and three weeks after crop emergence, field, Fayetteville, Ark.) read?
**A.** significant safening was achieved

**Q.** And the “safening shown in plot photos of wheat plants” value (fenclorim seed treatment 0.5 or 2.0 g/kg seed, S-metolachlor 750 g ai/ha preemergent, two weeks after crop emergence)?
**A.** safening provided
